Tests used:
Assay type in all cases: cell-based
[1] = biological target: T1, CaV 3.2 (Homo sapiens, UniProt O95180); assay: CaV 3.2 calcium assay in stable human CaV3.2-HEK293 cells; conditions: control agonist calcium chloride
T1 construct: expressed in transfected cells
Description: Compounds were evaluated for kappa (KOR), mu (MOR), and delta (DOR) opioid receptor agonist and antagonist activity in three individual cell lines overexpressing Gαq16 (CHO-RD-HGA16, Molecular Devices) and the human kappa, mu, and delta opioid receptors, respectively. The day before the assay, cells were plated into 96-well black-walled assay plates at 30,000 cells/well in Ham's F12 supplemented with 10% fetal bovine serum, and 100 units of penicillin and streptomycin. The cells were incubated overnight at 37° C., 5% CO2. Prior to the assay, Calcium 5 dye (Molecular Devices) was reconstituted according to the manufacturer's instructions. The reconstituted dye was diluted 1:40 in pre-warmed (37° C.) assay buffer (1×HBSS, 20 mM HEPES, 2.5 mM probenecid, pH 7.4 at 37° C.). Growth medium was removed and the cells were gently washed with 100 μL of pre-warmed (37° C.) assay buffer. The cells were incubated for 45 minutes at 37° C., 5% CO2 in 200 μL of the diluted Calcium 5 dye. For the agonist screen, a single concentration of each test compound and receptor-specific controls (U69,593, DAMGO, and DPDPE for KOR, MOR, and DOR, respectively) were prepared at 10× the desired final concentration in 1% DMSO/assay buffer, aliquoted into a 96-well polystyrene plate, and warmed to 37° C. After the dye-loading incubation period, pretreatment solution was added to each well (25 μL of 9% DMSO/assay buffer) and, after 15 min, the plate was read with a FlexStation II (Molecular Devices). Calcium-mediated changes in fluorescence were monitored every 1.52 seconds over a 60 second time period, with the FlexStation II adding 50 μL of test compounds at the 19 second time point (excitation at 485 nm, detection at 525 nm). Peak kinetic reduction (SoftMax, Molecular Devices) relative fluorescence units (RFU) were used to calculate % control agonist Emax with the equation % Emax=(test compound RFU/control agonist RFU)×100. For the antagonist screens, the same procedure was followed except that the pretreatment solution consisted of the test compounds (prepared at […] the desired final concentration in 9% DMSO/assay buffer) and the FlexStation added the EC60 concentration (prepared at 10× the desired final concentration in 1% DMSO/assay buffer) of each respective control agonist. Peak RFU were used to calculate % control EC60 inhibition with the equation % inhibition=((EC60 RFU−test compound RFU)/EC60 RFU)×100. When IC50 determinations were made, the same antagonist screen procedure was followed except that cells were pretreated with 8-pt concentration-response curves of the test compounds. Peak RFU were plotted against the log of compound concentration using non-linear regression analysis to generate IC50 values (GraphPad Prism). Each test sample was analyzed in duplicate in two independent experiments.
Compounds were evaluated for activity at CaV 3.2 using stable human CaV3.2-HEK293 cells and the control agonist calcium chloride. The day before the assay, cells were plated into 96-well black-walled assay plates coated with poly-D-lysine in DMEM-F12 supplemented with 10% fetal bovine serum, 100 units penicillin/streptomycin, and 500 μM sodium pyruvate, and incubated at 37° C., 5% CO2 overnight. Prior to the assay, Calcium 5 dye (Molecular Devices) was reconstituted according to the manufacturer instructions. The reconstituted dye was diluted 1:10 in pre-warmed (37° C.) assay buffer (1×HBSS, […], […], pH 7.4 at 37° C.). The cells were incubated for 45 minutes at 37° C., 5% CO2 in 200 μL of the diluted Calcium 5 dye. Compounds were prepared as described above and the plate was read with a FLIPR Tetra (Molecular Devices). Calcium-mediated changes in fluorescence were monitored every 1 second over a 60 second time period, with the Tetra adding 25 μL of appropriate compound at the 10 second time point (excitation at 470-495 nm, detection at 515-575 nm). […]

[2] = biological target: DOR (Homo sapiens, UniProt P41143); assay: NanoBiT-based β-arrestin-2 recruitment assay, DOR; design: expressed in transfected cells; host or cells: U87; conditions: concentration range 0.15 nM to 80 μM; reference Met-enkephalin
Description: (§1) The ability of the different molecules to activate the four opioid receptors MOR, DOR, KOR and NOP that are known to mediate in vivo analgesic effects was tested using the NanoBiT-based β-arrestin-2 recruitment assay in a concentration range of 0.15 nM to 80 μM. For each of these receptors a reference ligand corresponding to an endogenous opioid peptide i.e. Met-enkephalin, BAM22, Dynorphin A and Nociceptin, respectively was included.
(§2) Ligand-induced β-arrestin recruitment to chemokine and opioid receptors was monitored by NanoLuc complementation assay (NanoBiT, Promega). In brief, 1.2×10^6 U87 cells were plated in 10-cm culture dishes and 48 hours later co-transfected with pNBe vectors encoding GPCRs (ACKR3, MOR, DOR, KOR, or NOP) C-terminally tagged with SmBiT and human β-arrestin-1 (arrestin-2) or β-arrestin-2 (arrestin-3) N-terminally fused to LgBiT. 48 hours post-transfection cells were harvested, incubated 25 minutes at 37° C. with Nano-Glo Live Cell substrate diluted 200-fold and distributed into white 96-well plates (5×10^4 cells per well). Ligand-induced, β-arrestin to GPCRs was evaluated with a Mithras LB940 luminometer (Berthold Technologies, running on MicroWin 2010 5.19 software (Mikrotek Laborsysteme)) for 20 minutes.
(§3) For concentration-response curves (FIG. 2), the signal recorded with a saturating concentration of full agonist for each receptor was set as 100%. […]

[3] = biological target: MOR (Homo sapiens, UniProt P35372); assay: NanoBiT-based β-arrestin-2 recruitment assay, MOR; design: expressed in transfected cells; host or cells: U87; conditions: concentration range 0.15 nM to 80 μM; reference BAM22
Description: as §1, §2, §3

[4] = biological target: ACKR3 (Homo sapiens, UniProt P25106); assay: ACKR3-mediated uptake of Cy5-labeled BAM22 in U87-ACKR3 cells (imaging flow cytometry); design: expressed in transfected cells; host or cells: U87-ACKR3 (ACKR3-negative U87 as control); conditions: concentration-dependent, FIG. 7
Description: U87-ACKR3 cells were distributed into 96-well plates (2×10^5 cells per well in Opti-MEM). After 15-minute incubation at 37° C. with WW-1 or WW-12 or controls, Cy5-labeled BAM22 was added, incubated for 40 minutes at 37° C. and washed twice with FACS buffer. Dead cells were excluded using Zombie Green viability dye. Images of 1×10^4 in-focus living single cells were acquired with an ImageStream MKII imaging flow cytometer (Amnis, running on the INSPIRE Mark II software (EMD Millipore)) using 40× magnification (60× magnification for smNPCs). Samples were analyzed using Ideas6.2 software. The number of spots per cell was determined using a mask-based software wizard.

Chain of MOR (P35372 whole entry): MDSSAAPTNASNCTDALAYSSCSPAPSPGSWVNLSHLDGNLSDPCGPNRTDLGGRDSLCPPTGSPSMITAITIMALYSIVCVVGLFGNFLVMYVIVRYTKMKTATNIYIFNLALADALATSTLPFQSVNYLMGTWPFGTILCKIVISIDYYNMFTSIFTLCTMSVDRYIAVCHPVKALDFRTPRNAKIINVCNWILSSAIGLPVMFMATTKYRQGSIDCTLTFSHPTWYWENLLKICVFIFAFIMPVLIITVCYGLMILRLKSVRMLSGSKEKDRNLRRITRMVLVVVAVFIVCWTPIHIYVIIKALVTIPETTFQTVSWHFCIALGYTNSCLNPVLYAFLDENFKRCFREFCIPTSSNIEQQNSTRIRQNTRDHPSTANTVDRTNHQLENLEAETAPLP
T1 sequence (O95180 whole entry): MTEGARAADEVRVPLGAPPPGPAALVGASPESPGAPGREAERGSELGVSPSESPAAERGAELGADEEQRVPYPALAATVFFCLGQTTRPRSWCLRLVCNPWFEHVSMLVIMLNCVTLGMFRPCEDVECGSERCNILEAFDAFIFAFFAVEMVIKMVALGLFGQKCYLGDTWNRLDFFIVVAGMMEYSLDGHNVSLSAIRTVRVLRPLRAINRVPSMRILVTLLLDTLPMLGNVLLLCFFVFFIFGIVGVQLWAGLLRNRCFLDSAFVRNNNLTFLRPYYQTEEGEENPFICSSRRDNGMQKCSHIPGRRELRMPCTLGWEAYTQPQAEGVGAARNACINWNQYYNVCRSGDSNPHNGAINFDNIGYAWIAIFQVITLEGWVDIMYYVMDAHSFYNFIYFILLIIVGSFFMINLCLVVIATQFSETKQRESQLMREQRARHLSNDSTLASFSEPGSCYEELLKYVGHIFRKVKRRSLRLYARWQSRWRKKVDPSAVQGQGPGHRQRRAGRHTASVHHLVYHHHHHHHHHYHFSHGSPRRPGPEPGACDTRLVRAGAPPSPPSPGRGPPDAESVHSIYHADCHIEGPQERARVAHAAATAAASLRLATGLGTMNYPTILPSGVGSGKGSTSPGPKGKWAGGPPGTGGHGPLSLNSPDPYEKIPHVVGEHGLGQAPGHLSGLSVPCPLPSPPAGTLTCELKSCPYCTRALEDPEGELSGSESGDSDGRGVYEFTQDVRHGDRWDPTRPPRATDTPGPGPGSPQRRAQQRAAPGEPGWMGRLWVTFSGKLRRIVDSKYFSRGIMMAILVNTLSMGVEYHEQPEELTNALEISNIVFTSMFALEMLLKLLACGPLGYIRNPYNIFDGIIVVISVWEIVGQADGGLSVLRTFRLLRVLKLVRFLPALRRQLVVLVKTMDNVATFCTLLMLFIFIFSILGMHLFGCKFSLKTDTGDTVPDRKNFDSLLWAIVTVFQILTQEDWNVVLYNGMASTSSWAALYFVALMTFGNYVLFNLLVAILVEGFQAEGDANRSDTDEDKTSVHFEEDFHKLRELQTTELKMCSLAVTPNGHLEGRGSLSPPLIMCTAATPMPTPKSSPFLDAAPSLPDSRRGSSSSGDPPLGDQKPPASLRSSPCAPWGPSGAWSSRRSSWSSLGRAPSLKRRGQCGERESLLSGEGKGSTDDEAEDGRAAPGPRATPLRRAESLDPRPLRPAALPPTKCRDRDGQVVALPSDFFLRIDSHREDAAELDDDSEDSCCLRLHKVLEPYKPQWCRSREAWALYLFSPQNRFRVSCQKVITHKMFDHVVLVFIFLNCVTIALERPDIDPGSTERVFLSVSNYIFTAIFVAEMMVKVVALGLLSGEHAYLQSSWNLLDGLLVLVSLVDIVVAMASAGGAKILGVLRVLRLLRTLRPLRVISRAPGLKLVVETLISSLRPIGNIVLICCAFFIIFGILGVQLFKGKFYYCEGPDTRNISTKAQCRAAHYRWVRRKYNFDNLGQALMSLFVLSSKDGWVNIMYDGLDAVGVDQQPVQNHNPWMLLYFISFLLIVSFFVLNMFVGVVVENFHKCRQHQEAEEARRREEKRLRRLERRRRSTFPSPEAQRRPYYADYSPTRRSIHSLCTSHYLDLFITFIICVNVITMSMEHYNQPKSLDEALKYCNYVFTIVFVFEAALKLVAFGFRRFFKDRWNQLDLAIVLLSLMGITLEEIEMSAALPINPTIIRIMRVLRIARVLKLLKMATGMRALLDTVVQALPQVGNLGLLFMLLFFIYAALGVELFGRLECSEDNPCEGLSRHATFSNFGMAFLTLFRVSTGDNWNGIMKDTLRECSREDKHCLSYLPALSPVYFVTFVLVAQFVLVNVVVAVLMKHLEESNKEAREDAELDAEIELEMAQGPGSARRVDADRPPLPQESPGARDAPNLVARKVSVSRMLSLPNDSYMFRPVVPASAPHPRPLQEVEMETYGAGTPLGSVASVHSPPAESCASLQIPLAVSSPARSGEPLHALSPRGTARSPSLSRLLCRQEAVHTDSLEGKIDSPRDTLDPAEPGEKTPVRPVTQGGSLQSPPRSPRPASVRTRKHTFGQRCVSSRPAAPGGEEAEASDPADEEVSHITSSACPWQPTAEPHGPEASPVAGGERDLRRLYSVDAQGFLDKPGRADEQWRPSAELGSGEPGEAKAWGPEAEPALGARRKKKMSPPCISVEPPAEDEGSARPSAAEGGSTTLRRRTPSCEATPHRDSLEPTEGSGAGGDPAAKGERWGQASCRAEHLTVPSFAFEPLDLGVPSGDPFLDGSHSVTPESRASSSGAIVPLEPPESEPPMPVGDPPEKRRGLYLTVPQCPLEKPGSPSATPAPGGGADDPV
Chain of DOR (P41143 whole entry): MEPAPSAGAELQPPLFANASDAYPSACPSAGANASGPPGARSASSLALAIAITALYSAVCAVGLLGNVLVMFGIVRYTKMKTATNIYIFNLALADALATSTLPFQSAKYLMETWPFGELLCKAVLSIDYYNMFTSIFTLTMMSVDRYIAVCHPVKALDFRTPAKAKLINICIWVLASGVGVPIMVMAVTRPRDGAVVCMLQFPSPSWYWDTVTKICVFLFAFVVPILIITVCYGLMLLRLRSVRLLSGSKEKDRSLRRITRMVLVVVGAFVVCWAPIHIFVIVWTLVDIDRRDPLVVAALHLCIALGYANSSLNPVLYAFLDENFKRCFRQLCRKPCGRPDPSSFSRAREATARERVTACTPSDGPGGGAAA
Chain of ACKR3 (P25106 whole entry): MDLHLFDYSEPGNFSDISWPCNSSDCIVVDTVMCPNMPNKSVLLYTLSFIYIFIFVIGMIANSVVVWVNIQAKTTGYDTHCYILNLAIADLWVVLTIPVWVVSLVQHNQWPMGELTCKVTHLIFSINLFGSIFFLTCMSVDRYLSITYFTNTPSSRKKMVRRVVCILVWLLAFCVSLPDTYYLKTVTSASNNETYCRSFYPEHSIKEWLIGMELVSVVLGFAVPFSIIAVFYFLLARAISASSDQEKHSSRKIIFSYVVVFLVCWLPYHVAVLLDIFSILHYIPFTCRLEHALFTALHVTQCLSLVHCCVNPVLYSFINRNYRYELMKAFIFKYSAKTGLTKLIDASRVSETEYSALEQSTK

SMILES: C/C=C1/CN2CC[C@H]1C(=O)c1[nH]c3ccccc3c1C2 [WW-1, (4E,5R)-4-ethylidene-1,4,5,7-tetrahydro-2,5-ethanoazocino[4,3-b]indol-6(3H)-one]
- CaV 3.2 % CaCl2 Inhibition [1]: −7%
- activation of DOR (β-arrestin-2 recruitment) [2]: not active
- activation of MOR (β-arrestin-2 recruitment) [3]: not active
- inhibition of uptake of Cy5-labelled BAM22 by ACKR3 [4]: able to restrain the uptake

SMILES: C/C=C1/CN(CCCCC)CC[C@H]1C(=O)c1cc2ccccc2[nH]1 [WW-12, [(3E,4R)-3-ethylidene-1-pentylpiperidin-4-yl](1H-indol-2-yl)methanone]
- CaV 3.2 % CaCl2 Inhibition [1]: 42%
- activation of DOR (β-arrestin-2 recruitment) [2]: not active
- activation of MOR (β-arrestin-2 recruitment) [3]: not active
- inhibition of uptake of Cy5-labelled BAM22 by ACKR3 [4]: able to restrain the uptake

From patent publication US20240059688A1, “CONOLIDINE ANALOGUES AS SELECTIVE ACKR3 MODULATORS FOR THE TREATMENT OF CANCER” (Luxembourg Institute of Health (LIH), priority 2020, published 2024)
